According to US7385026B1, “Modified ghrelin polypeptides” (priority 1999, dated 2008):
pEC50: −log10 of the molar value. Peptide text beside a SMILES is read from it. * marks the point of attachment. Octanoyl = CCCCCCCC(=O)*

molecular target: T1, rat GHS-receptor (GHR-R) (Rattus norvegicus, UniProt O08725); experiment: Ca-releasing activity (increase in intracellular calcium) in CHO-GHSR62 cells, FLIPR; format: cell-based; conditions: not given
T1 construct: A full-length cDNA for rat GHR-R was obtained by RT-PCR; expressed in transfected cells
From the text: To assay an increase in the intracellular calcium ion concentration (Ca-releasing activity) occurring upon binding of a GH secretagogue (GHS) to GHS-receptor (GHR-R), a cell strain expressing rat GHR-R was created in the following manner. A full-length cDNA for rat GHR-R was obtained by RT-PCR (reverse transcriptase-polymerase chain reaction) where a cDNA derived from rat brain was used as template. From the nucleotide sequence of known rat GHR-R [K. K. Mckee, et al, Molecular Endocrinology 11, 415-423 (1997)], sense and antisense primers consisting of the following nucleotide sequences were synthesized.
The amplified cDNA was ligated to vector pcDNAIII (Invitrogen) to construct expression vector GHSR-pcDNAIII. CHO cells were transformed via the expression vector, and the transformed cells stably expressing GHR-R were selected in a medium containing 1 μg/ml G418. […] A change in the intracellular calcium ion concentration (Ca-releasing activity) was measured by an FLIPR system (Molecular Device). Before this measurement, 4×10^4 CHO-GHSR62 cells were put to a 96-well microplate with black wall (Corning Co., Ltd) and cultured for 12 to 15 hours. Then, the cells were incubated with 4 μM fluorescent Fluo4 (Molecular Probe Co., Ltd) for 1 hour and washed four times with Hank's BSS (Hank's Balanced Salt Solution) containing 20 mM Hepes ([N-2-hydroxyethyl]-piperazine-N-[2-ethanesulfonic acid]) and 2.5 mM probenecid, and the Ca-releasing activity was assayed by adding a sample and measuring a change in the fluorescence.
Peptide fragments obtained by partially digested the rat- and human-derived ghrelins by various proteases, or chemically synthesized peptides, were examined for their Ca releasing activity in order to determine a core amino acid sequence and the optimum chain length of a modifying fatty acid necessary for Ca-releasing activity.
The Ca-increasing activities of the ghrelin derivative peptide-type compounds synthesized in Example 10 and the natural ghrelin peptide were measured in the same manner as in Example 1.
In this examination, the intracellular Ca-releasing activity in CHO cells expressing rat GSH receptor was used as the indicator.

T1 sequence (O08725 whole entry): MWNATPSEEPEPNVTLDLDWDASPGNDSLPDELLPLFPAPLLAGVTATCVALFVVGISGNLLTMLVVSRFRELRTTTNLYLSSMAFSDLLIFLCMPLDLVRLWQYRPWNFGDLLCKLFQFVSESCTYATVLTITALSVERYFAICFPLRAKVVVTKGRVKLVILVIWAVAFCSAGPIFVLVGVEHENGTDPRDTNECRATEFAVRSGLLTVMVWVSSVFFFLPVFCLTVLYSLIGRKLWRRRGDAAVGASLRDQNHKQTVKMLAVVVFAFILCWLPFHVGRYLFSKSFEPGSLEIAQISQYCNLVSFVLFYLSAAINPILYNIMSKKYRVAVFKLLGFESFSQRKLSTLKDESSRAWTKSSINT

| Ca-releasing activity of ghrelin (1-9) after amidation relative to before amidation | SMILES |
| --- | --- |
| about 7 times | CCCCCCCC(=O)OC[C@H](NC(=O)[C@H](CO)NC(=O)CN)C(=O)N[C@@H](Cc1ccccc1)C(=O)N[C@@H](CC(C)C)C(=O)N[C@@H](CO)C(=O)N1CCC[C@H]1C(=O)N[C@@H](CCC(=O)O)C(=O)N[C@@H](Cc1c[nH]cn1)C(N)=O [Compound 3, Ghrelin (1-9)-amide] (H-GSS(Octanoyl)FLSPEH-NH2) |

same assay, conditions: CHO-GHSR62 cells (CHO cells expressing rat GHS receptor), FLIPR; read-out: Ca-releasing activity EC50

| pEC50 | SMILES |
| --- | --- |
| 8.00 | CCCCCCCC(=O)O[C@H](C)[C@H](NC(=O)[C@H](CO)NC(=O)CN)C(=O)N[C@@H](Cc1ccccc1)C(=O)N[C@@H](CC(C)C)C(=O)N[C@@H](CO)C(=O)N1CCC[C@H]1C(=O)N[C@@H](CCC(=O)O)C(=O)N[C@@H](Cc1c[nH]cn1)C(=O)N[C@@H](CCC(N)=O)C(=O)N[C@@H](CCCNC(=N)N)C(=O)N[C@H](C(=O)N[C@@H](CCC(N)=O)C(=O)N[C@@H](CCC(N)=O)C(=O)N[C@@H](CCCNC(=N)N)C(=O)N[C@@H](CCCCN)C(=O)N[C@@H](CCC(=O)O)C(=O)N[C@@H](CO)C(=O)N[C@@H](CCCCN)C(=O)N[C@@H](CCCCN)C(=O)N1CCC[C@H]1C(=O)N1CCC[C@H]1C(=O)N[C@@H](C)C(=O)N[C@@H](CCCCN)C(=O)N[C@@H](CC(C)C)C(=O)N[C@@H](CCC(N)=O)C(=O)N1CCC[C@H]1C(=O)N[C@@H](CCCNC(=N)N)C(=O)O)C(C)C [Compound 59, [Thr^3(Octanoyl)]-hGhrelin] |
| 8.07 | CCCCCCCC(=O)OC[C@H](NC(=O)[C@H](CO)NC(=O)CN)C(=O)N[C@@H](Cc1ccccc1)C(=O)N[C@@H](CC(C)C)C(=O)N[C@@H](CO)C(=O)N1CCC[C@H]1C(=O)N[C@@H](CCC(=O)O)C(=O)N[C@@H](Cc1c[nH]cn1)C(=O)N[C@@H](CCC(N)=O)C(=O)N[C@@H](CCCCN)C(=O)N[C@@H](C)C(=O)N[C@@H](CCC(N)=O)C(=O)N[C@@H](CCC(N)=O)C(=O)N[C@@H](CCCNC(=N)N)C(=O)O [Compound 21, rGhrelin (1-15)] |
| < 5.00 | CCCCCCCCOC[C@@H](NC(=O)[C@H](CO)NC(=O)CN)C(=O)N[C@H](Cc1ccccc1)C(=O)N[C@@H](CC(C)C)C(=O)N[C@@H](CO)C(=O)N1CCC[C@H]1C(N)=O [Compound 53, [^DSer^3(Octyl), ^DPhe^4]-Ghrelin (1-7)-amide] |
| 7.66 | CCCCCCCCOC[C@H](NC(=O)CCCCN)C(=O)N[C@@H](Cc1ccccc1)C(=O)N[C@@H](CC(C)C)C(=O)NCC [Compound 83, [N-Aminopentanoyl, Ser^3(Octyl)]-Ghrelin (3-5)-ethylamide] |
| 7.92 | CCCCCCCCOC[C@H](NC(=O)CCCCN)C(=O)N[C@@H](Cc1ccccc1)C(=O)N[C@@H](CCCCN)C(N)=O [Compound 76, [N-Aminopentanoyl, Ser^3(Octyl), Lys^5]-Ghrelin (3-5)-amide] |
| 8.15 | CCCCCCCC(=O)OC[C@H](NC(=O)[C@H](CO)NC(=O)CN)C(=O)N[C@@H](Cc1ccccc1)C(=O)N[C@@H](CC(C)C)C(=O)N[C@@H](CO)C(=O)N1CCC[C@H]1C(=O)N[C@@H](CCC(=O)O)C(=O)N[C@@H](Cc1c[nH]cn1)C(=O)N[C@@H](CCC(N)=O)C(=O)N[C@@H](CCCNC(=N)N)C(=O)N[C@H](C(=O)N[C@@H](CCC(N)=O)C(=O)N[C@@H](CCC(N)=O)C(=O)N[C@@H](CCCNC(=N)N)C(=O)O)C(C)C [Compound 20, hGhrelin (1-15)] |
| 6.11 | CC(=O)OC[C@H](NC(=O)[C@H](CO)NC(=O)CN)C(=O)N[C@@H](Cc1ccccc1)C(=O)N[C@@H](CC(C)C)C(=O)N[C@@H](CO)C(=O)N1CCC[C@H]1C(=O)N[C@@H](CCC(=O)O)C(=O)N[C@@H](Cc1c[nH]cn1)C(=O)N[C@@H](CCC(N)=O)C(=O)N[C@@H](CCCCN)C(=O)N[C@@H](C)C(=O)N[C@@H](CCC(N)=O)C(=O)N[C@@H](CCC(N)=O)C(=O)N[C@@H](CCCNC(=N)N)C(=O)N[C@@H](CCCCN)C(=O)N[C@@H](CCC(=O)O)C(=O)N[C@@H](CO)C(=O)N[C@@H](CCCCN)C(=O)N[C@@H](CCCCN)C(=O)N1CCC[C@H]1C(=O)N1CCC[C@H]1C(=O)N[C@@H](C)C(=O)N[C@@H](CCCCN)C(=O)N[C@@H](CC(C)C)C(=O)N[C@@H](CCC(N)=O)C(=O)N1CCC[C@H]1C(=O)N[C@@H](CCCNC(=N)N)C(=O)O [Compound 8, [Ser^3(Acetyl)]-rGhrelin] |
| 7.46 | CCCCCCCC(=O)OC[C@H](NC(=O)[C@H](Cc1c[nH]cn1)NC(=O)CN)C(=O)N[C@@H](Cc1ccccc1)C(=O)N[C@@H](CC(C)C)C(=O)N[C@@H](CO)C(=O)N1CCC[C@H]1C(N)=O [Compound 45, [His^2]-Ghrelin (1-7)-amide] (H-GHS(Octanoyl)FLSP-NH2) |
| 8.85 | CCCCCCCSSC[C@H](NC(=O)[C@H](CO)NC(=O)CN)C(=O)N[C@@H](Cc1ccccc1)C(=O)N[C@@H](CC(C)C)C(=O)N[C@@H](CO)C(=O)N1CCC[C@H]1C(=O)N[C@@H](CCC(=O)O)C(=O)N[C@@H](Cc1c[nH]cn1)C(=O)N[C@@H](CCC(N)=O)C(=O)N[C@@H](CCCNC(=N)N)C(=O)N[C@H](C(=O)N[C@@H](CCC(N)=O)C(=O)N[C@@H](CCC(N)=O)C(=O)N[C@@H](CCCNC(=N)N)C(=O)N[C@@H](CCCCN)C(=O)N[C@@H](CCC(=O)O)C(=O)N[C@@H](CO)C(=O)N[C@@H](CCCCN)C(=O)N[C@@H](CCCCN)C(=O)N1CCC[C@H]1C(=O)N1CCC[C@H]1C(=O)N[C@@H](C)C(=O)N[C@@H](CCCCN)C(=O)N[C@@H](CC(C)C)C(=O)N[C@@H](CCC(N)=O)C(=O)N1CCC[C@H]1C(=O)N[C@@H](CCCNC(=N)N)C(=O)O)C(C)C [Compound 57] |
| 8.27 | CCCCCCCC(=O)OC[C@H](NC(=O)[C@H](CO)NC(=O)CN)C(=O)N[C@@H](Cc1ccccc1)C(=O)N[C@@H](CC(C)C)C(=O)N[C@@H](CO)C(=O)N1CCC[C@H]1C(=O)N[C@@H](CCC(=O)O)C(=O)N[C@@H](Cc1c[nH]cn1)C(N)=O [Compound 3, Ghrelin (1-9)-amide] (H-GSS(Octanoyl)FLSPEH-NH2) |
| < 5.00 | CC(C)C[C@H](NC(=O)[C@H](CCCCN)NC(=O)[C@H](C)NC(=O)[C@@H]1CCCN1C(=O)[C@@H]1CCCN1C(=O)[C@H](CCCCN)NC(=O)[C@H](CCCCN)NC(=O)[C@H](CO)NC(=O)[C@H](CCC(=O)O)NC(=O)[C@@H](N)CCCCN)C(=O)N[C@@H](CCC(N)=O)C(=O)N1CCC[C@H]1C(=O)N[C@@H](CCCNC(=N)N)C(=O)O [Compound 19, Ghrelin (16-28)] |
| 8.24 | CCCCCCCCOC[C@H](NC(=O)[C@H](CO)NC(=O)CN)C(=O)N[C@@H](Cc1ccccc1)C(=O)N[C@@H](CC(C)C)C(=O)N[C@@H](CO)C(=O)N1CCC[C@H]1C(N)=O [Compound 50, [Ser^3(Octyl)]-Ghrelin (1-7)-amide] |
| 7.11 | CCCCCCCC(=O)OC[C@H](NC(=O)CNC(=O)CN)C(=O)N[C@@H](Cc1ccccc1)C(=O)N[C@@H](CC(C)C)C(=O)N[C@@H](CO)C(=O)N1CCC[C@H]1C(N)=O [Compound 47, [Gly^2]-Ghrelin (1-7)-amide] (H-GGS(Octanoyl)FLSP-NH2) |
| < 5.00 | CCCCCCCCOC[C@@H](NC(=O)[C@H](CO)NC(=O)CN)C(=O)N[C@@H](Cc1ccccc1)C(=O)N[C@@H](CC(C)C)C(=O)N[C@@H](CO)C(=O)N1CCC[C@H]1C(N)=O [Compound 52, [^DSer^3(Octyl)]-Ghrelin (1-7)-amide] |
| 7.01 | CCCCCCCCOC[C@H](NC(=O)CCCCN)C(=O)N[C@@H](Cc1ccccc1)C(=O)N[C@@H](CC(C)C)C(=O)NCc1ccccc1 [Compound 84, [N-Aminopentanoyl, Ser^3(Octyl)]-Ghrelin (3-5)-benzylamide] |

same assay, conditions: Table 3, Example 9: protease fragments or synthetic peptides; CHO-GHSR62 cells; read-out: Ca-releasing activity (EC50)

| pEC50 | SMILES |
| --- | --- |
| < 5.00 | CC(C)C[C@H](NC(=O)[C@H](CCCCN)NC(=O)[C@H](C)NC(=O)[C@@H]1CCCN1C(=O)[C@@H]1CCCN1C(=O)[C@H](CCCCN)NC(=O)[C@H](CCCCN)NC(=O)[C@H](CO)NC(=O)[C@H](CCC(=O)O)NC(=O)[C@@H](N)CCCCN)C(=O)N[C@@H](CCC(N)=O)C(=O)N1CCC[C@H]1C(=O)N[C@@H](CCCNC(=N)N)C(=O)O [Compound 19, Ghrelin (16-28)] |
